Where two headings read alike, the source gives them in different places.

For series [1], the system named is PBMCs. Briefly: Apoptosis analysis of simian PBMCs by PI staining (sub-diploid peak). The class given is cell-based, primate. The following applies: CoPP alone; concanavalin A, 96 hours. How it is done: The pellet from each sample has been resuspended in 600 µl of PBS and subsequently, 1.4 ml of absolute ethanol has been added dropwise while shaking continuously. The samples have been left at -20°C overnight. Following fixation, the cells have been washed twice in PBS. The pellet has been resuspended in 500 µl of PI at a concentration of 50 µg/ml, to which 6.25 µl of Nonidet P40 and 8 µl of RNase A (1 mg/ml) have been added. The samples have been shaken vigorously and incubated for at least half an hour in the dark at room temperature. Following incubation, the samples have been analysed using a cytofluorimeter, for cell cycle analysis.
(§1) By means of staining with the DNA intercalator, PI, it has been possible to evaluate the apoptotic cells as a sub-diploid peak and the cells in the DNA synthesis and duplication stage (S+G2 stage) as peaks with a DNA content greater than or equal to the diploid content. The proliferation index of PBMCs has been evaluated by staining the cells with CFSE at the same time as stimulation.
In order to study apoptosis, the percentage of cells in the sub-diploid stage has been quantified.

Series [2] has as its system HO-1. The settings on record: paec, 72 h. An excerpt:
Equal amounts of protein of each sample have been loaded and separated by electrophoresis on a 12% polyacrylamide gel in the presence of SDS (SDS-PAGE) and then transferred onto a nitrocellulose membrane (Amersham-Pharmacia) by means of electroblotting. […] The specific band has been detected by adding a chemiluminescent substrate followed by exposure to photographic film (ECL-Amersham-Pharmacia). The relative amount of HO-1 protein, normalised to the actin content of each sample, has been determined with the use of a densitometer (Pharmacia).
Following stimulation, HO-1 expression has been assessed by Western Blotting and densitometric analysis of the bands obtained. HO-1 expression is reported as the ratio of the intensity of the bands with respect to the control (table 1). The amount of protein loaded is normalised for actin.

The subject of series [3] is PBMCs. Description: Proliferation of concanavalin A activated simian PBMCs by CFSE labelling. The following applies: CoPP alone (CsA concentration 0), 96 hours (figure 2). The class given is cell-based, primate.
Source text: as §1

Series [4] relates to PAEC cells. Description: Proliferation of PAEC cells by CFSE labelling and cytofluorometric analysis. Type of series: cell-based, Pig. The following applies: CoPP alone, various concentrations; versus untreated PAEC controls (figure 1). An excerpt:
Two in vitro experimental models have been used.
CFSE is a non-fluorescent dye which diffuses passively into the cell cytoplasm. Once inside the cytoplasm, the dye is cleaved by intracellular esterases, thus becoming fluorescent. This binds strongly to cellular proteins and is retained during cellular development. At each cell division stage, CFSE is distributed evenly to daughter cells, with the result that each cellular generation will inherit half of the CFSE content. When analysed by cytofluorimetry, the sequential reduction of CFSE is visualised as distinct peaks corresponding to ever more decreasing fluorescence. PAEC proliferation has been evaluated as a proliferation index, calculated as the sum of the cells in all generations divided by the number of original parental cells (e.g. in the second generation, the parental cells would correspond to the total number of cells in the second generation divided by 2, in the third, divided by 4, because each will have given rise to 2^1, 2^2 cells and so on for each generation).

As for cobalt (III) protoporphyrin [CoPP], the “apoptosis (cells in the sub-diploid stage)” value in series [1] is given as “up to 6%”. In addition, the “HO-1 expression in PAECs as the ratio of band intensity with respect to the control and normalised for actin (R)” value was determined as 6.0 in series [2] (50 µM) and 4.6 in series [2] (100 µM). Moreover, the “concentration at which PBMC proliferation is inhibited” value in series [3] is reported as > 25 µM. The “proliferation index of PAECs” value in series [4] is “increases the proliferation index in a dose dependent manner”.

These data come from patent EP1762248A1, “Use of cobalt porphyrins in joint therapy with an immunosuppressant drug for treatment of transplant patients or autoimmune disorders” (CORIT Consorzio per la Ricerca sul, priority 2005, dated 2007).
